Where a name gives a salt, the structure may show the parent alone.
Biological target: T1, hCaSR (Calcium sensing receptor) in stably transfected HEK293 cells (Homo sapiens, UniProt P41180)
T1 construct: expressed in transfected cells; host or cells: HEK293 (stably transfected)
T1 sequence (P41180 20-1078): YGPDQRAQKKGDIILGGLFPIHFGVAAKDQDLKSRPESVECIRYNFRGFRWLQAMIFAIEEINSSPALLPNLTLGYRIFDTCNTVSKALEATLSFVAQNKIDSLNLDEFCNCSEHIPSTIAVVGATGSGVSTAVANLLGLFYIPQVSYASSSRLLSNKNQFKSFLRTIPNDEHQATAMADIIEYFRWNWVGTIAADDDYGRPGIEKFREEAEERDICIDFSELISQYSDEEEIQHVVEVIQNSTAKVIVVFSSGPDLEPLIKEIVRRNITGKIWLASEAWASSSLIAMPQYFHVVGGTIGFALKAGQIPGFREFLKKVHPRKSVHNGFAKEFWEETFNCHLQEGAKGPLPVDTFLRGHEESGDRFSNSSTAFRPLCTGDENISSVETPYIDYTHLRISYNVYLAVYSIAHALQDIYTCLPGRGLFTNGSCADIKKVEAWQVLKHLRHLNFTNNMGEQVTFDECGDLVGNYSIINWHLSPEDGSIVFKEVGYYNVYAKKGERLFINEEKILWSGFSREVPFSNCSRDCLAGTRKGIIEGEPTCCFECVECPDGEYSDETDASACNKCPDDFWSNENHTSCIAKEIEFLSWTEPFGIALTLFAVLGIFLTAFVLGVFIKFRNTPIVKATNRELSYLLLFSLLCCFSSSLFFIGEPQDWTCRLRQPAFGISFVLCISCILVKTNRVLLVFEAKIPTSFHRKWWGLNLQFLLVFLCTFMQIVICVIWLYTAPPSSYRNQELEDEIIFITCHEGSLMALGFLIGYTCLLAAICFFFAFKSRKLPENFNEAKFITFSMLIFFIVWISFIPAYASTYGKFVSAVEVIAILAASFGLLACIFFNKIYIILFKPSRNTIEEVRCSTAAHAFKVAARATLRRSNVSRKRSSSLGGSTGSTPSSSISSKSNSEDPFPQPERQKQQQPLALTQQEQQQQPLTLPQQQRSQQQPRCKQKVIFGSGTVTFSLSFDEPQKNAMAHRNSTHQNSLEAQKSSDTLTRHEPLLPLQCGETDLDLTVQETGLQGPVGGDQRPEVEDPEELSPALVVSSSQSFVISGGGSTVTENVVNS
Experiment: In-vitro assay of calcimimetics through modulation of calcium sensing receptor (CaSR): increase in intracellular calcium, FLIPR
Assay type: cell-based
Settings: HEK293 cells expressing hCaSR; intracellular calcium (Fluo4NW, FLIPR); 0.3 mM CaCl2; 8-point assay; read-out: EC50 in range
Protocol: In-Vitro Assay Method of Calcimemtics Through Modulation of Calcium Sensing Receptor (CaSR):
The ability of the compounds to modulate Calcium sensing receptor is determined by measuring an increase in intracellular calcium [Ca^2+i]. Stably transfected HEK293 cells expressing hCaSR_pTriEx-3 hygro vector are developed. Cells are grown overnight on a 96-well plate to 80% confluency in Ham's F12 containing 20% FBS at 37° C., 5% CO2 Subsequently, cells are washed extensively with 20 mM HEPES buffer containing 126 mM NaCl2, 1 mM MgCl2 and 4 mM KCl2 to remove serum components that might interfere with the assay. Cells are loaded with calcium sensing Fluo4NW dye in HEPES base buffer containing 0.1% BSA and 1 mg/ml glucose for 30 minutes to measure changes in intracellular calcium. The activities of the compounds are measured in FLIPR using 0.3 mM CaCl2 in 20 mM HEPES base buffer. The effectiveness of the compound to modulate receptor activity is determined by calculating the EC50 responses for that compound in an 8-point assay and plotted using GraphPad Prism 5.
The compounds prepared were tested using the above assay procedure and the results obtained are given below.

EC50 [nM] | SMILES
< 20 | C[C@@H](NCC1CN(Cc2cccc(C(F)(F)F)c2)C(=O)CO1)c1cccc2ccccc12 (single isomer, unassigned) [Example 70a, hydrochloride]
50 to 200 | C[C@@H](NCCC1CN(c2ccc(C(=O)O)cc2)CCO1)c1cccc2ccccc12 (single isomer, unassigned) [Example 112a, hydrochloride]
50 to 200 | C[C@@H](NCC1CN(c2ccc(C(=O)O)cc2)CCO1)c1cccc2ccccc12 (stereo partly drawn) [Example 147, 4-(2-((((R)-1-(Naphthalen-1-yl)ethyl)amino)methyl)morpholino)benzoic acid hydrochloride]
20 to 50 | COc1cc([C@@H](C)NCC2CN(Cc3cc(F)ccc3F)C(=O)CO2)ccc1F (single isomer, unassigned) [Example 160a, hydrochloride]
< 20 | COc1cccc([C@@H](C)NCC2COCCN2c2ccccc2)c1 (single isomer, unassigned) [11a]
20 to 50 | C[C@@H](NCC1CN(c2ccc(C(F)(F)F)cc2)CCO1)c1cccc2ccccc12 (single isomer, unassigned) [33b]
50 to 200 | COc1cccc(N2CCOCC2CN[C@H](C)c2cccc3ccccc23)c1 (single isomer, unassigned) [5a]
< 20 | C[C@@H](NCC1CN(C2CCCC2)C(=O)CO1)c1cccc2ccccc12 (stereo partly drawn) [Example 76, 4-Cyclopentyl-6-((((R)-1-(naphthalen-1-yl)ethyl)amino)methyl)morpholin-3-one hydrochloride]
< 20 | COc1cccc([C@@H](C)NCC2COCCN2c2cccc(C)c2)c1 (single isomer, unassigned) [10b]
20 to 50 | C[C@@H](NCC1COCCN1c1ccc(F)cc1)c1cccc2ccccc12 (some centres unmarked) [compound 17]
< 20 | Cc1ccc(N2CCOC(CN[C@H](C)c3cccc4ccccc34)C2)cc1 (single isomer, unassigned) [27b]
< 20 | C[C@@H](NCC1COCCN1c1ccccc1)c1cccc2ccccc12 (single isomer, unassigned) [Example-1a, hydrochloride]
50 to 200 | Cc1cc(N2CCOC(CCN[C@H](C)c3cccc4ccccc34)C2)ccc1C(=O)O (single isomer, unassigned) [Example 104a]
50 to 200 | COc1cccc([C@@H](C)NCC2COCCN2c2ccc(C)cc2)c1 (some centres unmarked) [compound 8]
< 20 | C[C@@H](NCC1CN(c2ccc(F)cc2)CCO1)c1cccc2ccccc12 (some centres unmarked) [compound 28]
< 20 | C[C@@H](NCC1CN(c2cccc(F)c2F)C(=O)CO1)c1cccc2ccccc12 (stereo partly drawn) [compound 54, 4-(2,3-Difluorophenyl)-6-((((R)-1-(naphthalen-1-yl)ethyl)amino)methyl)morpholin-3-one hydrochloride]
20 to 50 | C[C@@H](NCC1COCCN1Cc1cccc(C(F)(F)F)c1)c1cccc2ccccc12 (single isomer, unassigned) [Example-35b]
< 20 | C[C@@H](NCC1CN(CC2CC2)C(=O)CO1)c1cccc2ccccc12 (single isomer, unassigned) [Example 97a, hydrochloride]
< 20 | C[C@@H](NCC1CN(c2ccc(F)c(F)c2)C(=O)CO1)c1cccc2ccccc12 (single isomer, unassigned) [62a, hydrochloride]
50 to 200 | C[C@@H](NCC1CN(CC2CCCC2)C(=O)CO1)c1cccc2ccccc12 (single isomer, unassigned) [Example-69a]
< 20 | C[C@@H](NCC1COCCN1c1cccc(C(F)(F)F)c1)c1cccc2ccccc12 (single isomer, unassigned) [Example-2a]
< 20 | Cc1cccc(N2CCOCC2CN[C@H](C)c2cccc3ccccc23)c1 (stereo partly drawn) [Example 120, (1R)-1-(Naphthalen-1-yl)-N-((4-(m-tolyl)morpholin-3-yl)methyl)ethanamine hydrochloride]
50 to 200 | Cc1ccc(N2CCOC(CN[C@H](C)c3cccc4ccccc34)C2)cc1 (single isomer, unassigned) [27a]

Source: US9382216B2, “Substituted morpholines as modulators for the calcium sensing receptor” (LUPIN LIMITED, priority 2011, dated 2016)
